Measurements from the kinase profiling compilation of Christmann-Franck et al. (2016).

What was measured:
Assay in all cases: radiometric filter-binding kinase assay
[1] = molecular target: EPHA4 (human) (UniProt P54764)
[2] = molecular target: CLK2 (human) (UniProt P49760)
[3] = molecular target: YES1 (human) (UniProt P07947)
[4] = molecular target: RPS6KA5 KD1 KD2 (human) (UniProt O75582)
[5] = molecular target: MAPK11 (human) (UniProt Q15759)
[6] = molecular target: HIPK2 (human) (UniProt Q9H2X6)
[7] = molecular target: HIPK1 (human) (UniProt Q86Z02)
[8] = molecular target: PAK7 (human) (UniProt Q9P286)
[9] = molecular target: MAP3K5 (human) (UniProt Q99683)
[10] = molecular target: MAPK1 (human) (UniProt P28482)
[11] = molecular target: HIPK3 (human) (UniProt Q9H422)
[12] = molecular target: PLK1 (human) (UniProt P53350)
[13] = molecular target: PAK6 (human) (UniProt Q9NQU5)
[14] = molecular target: EPHB1 (human) (UniProt P54762); conditions: compound 1.0 µM
[15] = molecular target: SYK (human) (UniProt P43405)
[16] = molecular target: IGF1R (human) (UniProt P08069)
[17] = molecular target: EPHB4 (human) (UniProt P54760)
[18] = molecular target: PKN2 (human) (UniProt Q16513)
[19] = system: AKT2 (human), P31751 [S474D]
[20] = molecular target: MAP3K9 (human) (UniProt P80192)
[21] = molecular target: INSR (human) (UniProt P06213)
[22] = molecular target: MAPK13 (human) (UniProt O15264)
[23] = molecular target: SRC (human) (UniProt P12931)
[24] = system: ROCK2 (rat); conditions: accession and sequence are those of the human protein
[25] = system: PRKAA1 or PRKAA2 (rat); conditions: accession and sequence are those of the human protein
[26] = molecular target: CAMKK2 (human) (UniProt Q96RR4)
[27] = molecular target: PRKCZ (human) (UniProt Q05513)
[28] = molecular target: BRSK2 (human) (UniProt Q8IWQ3)
[29] = system: LCK (mouse); conditions: accession and sequence are those of the human protein
[30] = molecular target: MAP3K7 TAB1 (human) (UniProt Q15750+O43318)
[31] = molecular target: GSK3B (human) (UniProt P49841)
[32] = molecular target: EPHB3 (human) (UniProt P54753)
[33] = molecular target: DAPK1 (human) (UniProt P53355)
[34] = molecular target: CSK (human) (UniProt P41240)
[35] = molecular target: MARK4 (human) (UniProt Q96L34)
Sequence of MARK4 (human) (Q96L34 whole entry, looked up): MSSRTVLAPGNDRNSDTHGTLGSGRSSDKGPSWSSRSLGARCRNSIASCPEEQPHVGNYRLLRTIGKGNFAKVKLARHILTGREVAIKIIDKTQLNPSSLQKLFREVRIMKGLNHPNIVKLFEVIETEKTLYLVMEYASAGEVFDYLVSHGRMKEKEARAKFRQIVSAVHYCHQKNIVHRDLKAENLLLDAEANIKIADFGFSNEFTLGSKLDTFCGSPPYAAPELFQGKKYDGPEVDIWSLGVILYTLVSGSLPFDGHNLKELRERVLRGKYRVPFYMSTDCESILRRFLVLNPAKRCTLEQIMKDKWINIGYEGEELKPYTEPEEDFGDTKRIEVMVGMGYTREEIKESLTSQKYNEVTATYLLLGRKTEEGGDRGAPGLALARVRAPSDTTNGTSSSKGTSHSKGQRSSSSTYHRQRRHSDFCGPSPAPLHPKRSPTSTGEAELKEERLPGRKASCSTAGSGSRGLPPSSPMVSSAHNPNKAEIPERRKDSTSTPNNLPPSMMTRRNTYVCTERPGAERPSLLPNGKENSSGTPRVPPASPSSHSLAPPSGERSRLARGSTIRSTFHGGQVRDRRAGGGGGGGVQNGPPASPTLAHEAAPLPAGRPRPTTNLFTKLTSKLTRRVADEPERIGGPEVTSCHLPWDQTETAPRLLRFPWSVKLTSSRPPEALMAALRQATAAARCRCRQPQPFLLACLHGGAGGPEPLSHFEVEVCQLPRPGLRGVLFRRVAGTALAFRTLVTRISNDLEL

Sequence of SRC (human) (P12931 whole entry, looked up): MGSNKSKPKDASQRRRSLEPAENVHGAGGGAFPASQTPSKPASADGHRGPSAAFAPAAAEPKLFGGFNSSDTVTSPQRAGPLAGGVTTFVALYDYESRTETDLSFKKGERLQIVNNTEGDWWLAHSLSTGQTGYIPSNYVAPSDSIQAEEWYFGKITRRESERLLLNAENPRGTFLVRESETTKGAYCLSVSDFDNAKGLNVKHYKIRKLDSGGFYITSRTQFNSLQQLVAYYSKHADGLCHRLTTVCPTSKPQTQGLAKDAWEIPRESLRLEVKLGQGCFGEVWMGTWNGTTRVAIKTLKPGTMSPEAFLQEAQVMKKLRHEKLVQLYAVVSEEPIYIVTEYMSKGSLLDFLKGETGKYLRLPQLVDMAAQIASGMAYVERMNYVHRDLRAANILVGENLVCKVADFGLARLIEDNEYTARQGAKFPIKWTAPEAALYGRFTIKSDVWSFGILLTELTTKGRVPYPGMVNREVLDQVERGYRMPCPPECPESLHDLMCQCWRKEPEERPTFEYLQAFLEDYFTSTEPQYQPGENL
Sequence of AKT2 (human), P31751 [S474D] (P31751 whole entry S474D, looked up): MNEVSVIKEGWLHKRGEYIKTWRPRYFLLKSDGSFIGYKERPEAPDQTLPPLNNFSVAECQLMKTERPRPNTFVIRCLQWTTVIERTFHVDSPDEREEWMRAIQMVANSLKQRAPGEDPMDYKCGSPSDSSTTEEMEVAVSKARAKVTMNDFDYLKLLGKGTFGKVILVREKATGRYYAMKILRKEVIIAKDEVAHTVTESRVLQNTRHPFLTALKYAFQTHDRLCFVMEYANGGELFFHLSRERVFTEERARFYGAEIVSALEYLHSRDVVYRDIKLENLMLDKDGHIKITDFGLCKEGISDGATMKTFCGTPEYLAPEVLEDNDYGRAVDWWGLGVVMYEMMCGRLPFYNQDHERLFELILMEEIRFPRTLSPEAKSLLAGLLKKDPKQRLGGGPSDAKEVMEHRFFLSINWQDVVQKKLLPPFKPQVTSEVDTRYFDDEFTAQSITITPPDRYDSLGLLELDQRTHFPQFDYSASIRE
Sequence of MAPK13 (human) (O15264 whole entry, looked up): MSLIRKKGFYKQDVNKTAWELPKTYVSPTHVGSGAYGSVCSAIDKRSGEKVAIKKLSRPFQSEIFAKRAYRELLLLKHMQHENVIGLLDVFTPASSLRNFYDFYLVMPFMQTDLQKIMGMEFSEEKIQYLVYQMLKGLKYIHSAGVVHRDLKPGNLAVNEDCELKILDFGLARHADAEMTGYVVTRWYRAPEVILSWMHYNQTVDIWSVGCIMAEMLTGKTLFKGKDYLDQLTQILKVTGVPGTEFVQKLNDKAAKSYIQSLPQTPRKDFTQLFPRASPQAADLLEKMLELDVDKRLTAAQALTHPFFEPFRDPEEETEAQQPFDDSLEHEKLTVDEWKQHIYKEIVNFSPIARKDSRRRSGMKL
Sequence of MAP3K7 TAB1 (human) (O43318 whole entry, looked up): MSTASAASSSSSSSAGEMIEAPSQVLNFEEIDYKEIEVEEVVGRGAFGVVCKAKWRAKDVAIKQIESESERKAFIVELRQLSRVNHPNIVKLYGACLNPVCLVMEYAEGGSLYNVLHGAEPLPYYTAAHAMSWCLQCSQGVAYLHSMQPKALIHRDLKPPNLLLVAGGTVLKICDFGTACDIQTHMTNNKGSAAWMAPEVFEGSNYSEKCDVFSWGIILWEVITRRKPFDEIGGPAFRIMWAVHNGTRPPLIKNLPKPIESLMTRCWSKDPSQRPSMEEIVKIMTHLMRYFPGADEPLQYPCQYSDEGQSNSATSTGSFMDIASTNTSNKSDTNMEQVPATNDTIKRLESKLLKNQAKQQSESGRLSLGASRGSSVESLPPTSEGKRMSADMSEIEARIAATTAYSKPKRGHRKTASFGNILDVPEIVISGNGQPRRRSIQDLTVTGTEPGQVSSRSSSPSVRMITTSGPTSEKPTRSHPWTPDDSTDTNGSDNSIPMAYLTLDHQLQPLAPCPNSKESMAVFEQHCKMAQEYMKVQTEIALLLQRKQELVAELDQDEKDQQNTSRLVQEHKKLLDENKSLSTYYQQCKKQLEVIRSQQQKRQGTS
Sequence of MAP3K7 TAB1 (human) (Q15750 whole entry, looked up): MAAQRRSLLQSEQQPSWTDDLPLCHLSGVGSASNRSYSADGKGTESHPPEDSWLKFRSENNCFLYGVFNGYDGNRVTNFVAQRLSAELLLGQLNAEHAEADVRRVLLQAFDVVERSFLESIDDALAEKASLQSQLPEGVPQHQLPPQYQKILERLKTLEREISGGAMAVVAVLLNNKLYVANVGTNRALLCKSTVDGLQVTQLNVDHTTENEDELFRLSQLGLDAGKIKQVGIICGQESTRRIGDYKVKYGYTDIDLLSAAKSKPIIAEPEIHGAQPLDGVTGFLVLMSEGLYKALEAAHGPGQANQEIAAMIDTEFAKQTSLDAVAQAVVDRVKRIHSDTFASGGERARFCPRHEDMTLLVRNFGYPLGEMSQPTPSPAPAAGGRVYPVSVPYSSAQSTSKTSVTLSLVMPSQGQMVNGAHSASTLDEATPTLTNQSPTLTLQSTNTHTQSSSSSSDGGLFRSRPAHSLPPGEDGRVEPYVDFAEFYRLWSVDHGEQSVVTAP
Sequence of EPHB3 (human) (P54753 whole entry, looked up): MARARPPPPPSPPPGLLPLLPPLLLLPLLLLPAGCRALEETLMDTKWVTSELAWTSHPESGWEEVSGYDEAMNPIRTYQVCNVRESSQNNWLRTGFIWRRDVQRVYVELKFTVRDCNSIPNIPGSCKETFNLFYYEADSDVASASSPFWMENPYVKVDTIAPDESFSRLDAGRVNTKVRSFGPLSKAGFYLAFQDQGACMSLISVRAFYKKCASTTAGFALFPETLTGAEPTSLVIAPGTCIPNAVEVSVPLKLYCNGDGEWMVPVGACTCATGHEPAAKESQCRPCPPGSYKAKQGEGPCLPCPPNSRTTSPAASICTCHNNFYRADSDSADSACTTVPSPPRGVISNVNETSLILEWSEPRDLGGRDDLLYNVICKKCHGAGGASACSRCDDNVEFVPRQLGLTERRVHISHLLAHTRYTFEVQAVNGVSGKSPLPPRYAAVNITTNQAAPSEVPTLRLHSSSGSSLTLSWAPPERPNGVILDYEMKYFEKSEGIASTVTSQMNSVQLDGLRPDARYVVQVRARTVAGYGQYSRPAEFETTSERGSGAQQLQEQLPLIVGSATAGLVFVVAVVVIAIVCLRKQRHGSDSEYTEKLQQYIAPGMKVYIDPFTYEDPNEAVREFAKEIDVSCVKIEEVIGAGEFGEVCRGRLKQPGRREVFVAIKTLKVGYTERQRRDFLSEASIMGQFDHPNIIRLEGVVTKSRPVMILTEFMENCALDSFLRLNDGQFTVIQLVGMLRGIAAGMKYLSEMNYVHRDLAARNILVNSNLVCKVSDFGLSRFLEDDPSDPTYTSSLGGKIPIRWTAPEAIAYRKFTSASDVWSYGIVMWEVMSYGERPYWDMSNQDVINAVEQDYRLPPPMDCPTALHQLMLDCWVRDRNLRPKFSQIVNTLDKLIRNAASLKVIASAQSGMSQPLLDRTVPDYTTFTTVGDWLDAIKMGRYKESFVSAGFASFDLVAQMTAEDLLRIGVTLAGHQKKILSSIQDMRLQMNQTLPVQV
Sequence of BRSK2 (human) (Q8IWQ3 whole entry, looked up): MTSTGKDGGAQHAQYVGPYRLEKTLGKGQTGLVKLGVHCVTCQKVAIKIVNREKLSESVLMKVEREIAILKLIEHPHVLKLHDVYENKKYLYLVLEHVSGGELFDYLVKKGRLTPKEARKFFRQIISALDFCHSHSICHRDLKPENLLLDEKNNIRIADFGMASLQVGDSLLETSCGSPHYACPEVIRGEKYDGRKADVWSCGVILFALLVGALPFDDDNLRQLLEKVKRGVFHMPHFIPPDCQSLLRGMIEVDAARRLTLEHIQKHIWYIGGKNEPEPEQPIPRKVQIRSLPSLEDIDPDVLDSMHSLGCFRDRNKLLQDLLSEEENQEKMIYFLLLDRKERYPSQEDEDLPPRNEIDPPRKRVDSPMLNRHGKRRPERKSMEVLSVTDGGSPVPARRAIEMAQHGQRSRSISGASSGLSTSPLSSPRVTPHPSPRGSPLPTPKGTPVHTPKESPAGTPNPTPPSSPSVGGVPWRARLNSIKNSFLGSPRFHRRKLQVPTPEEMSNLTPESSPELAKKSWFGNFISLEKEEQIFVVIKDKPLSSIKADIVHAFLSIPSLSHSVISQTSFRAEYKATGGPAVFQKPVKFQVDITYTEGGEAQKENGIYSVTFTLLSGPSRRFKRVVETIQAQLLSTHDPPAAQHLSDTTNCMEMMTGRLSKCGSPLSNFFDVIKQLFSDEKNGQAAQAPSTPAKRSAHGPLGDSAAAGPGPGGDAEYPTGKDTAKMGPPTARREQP

residual activity ([1]; compound 1.0 µM): 114%
residual activity ([1]; compound 10.0 µM): 53%
residual activity ([2]; compound 1.0 µM): 89%
residual activity ([2]; compound 10.0 µM): 49%
residual activity ([3]; compound 1.0 µM): 92%
residual activity ([3]; compound 10.0 µM): 79%
residual activity ([4]; compound 1.0 µM): 108%
residual activity ([4]; compound 10.0 µM): 108%
residual activity ([5]; compound 1.0 µM): 99%
residual activity ([5]; compound 10.0 µM): 98%
residual activity ([6]; compound 1.0 µM): 94%
residual activity ([6]; compound 10.0 µM): 52%
residual activity ([7]; compound 1.0 µM): 100%
residual activity ([7]; compound 10.0 µM): 87%
residual activity ([8]; compound 1.0 µM): 100%
residual activity ([8]; compound 10.0 µM): 54%
residual activity ([9]; compound 1.0 µM): 106%
residual activity ([9]; compound 10.0 µM): 96%
residual activity ([10]; compound 1.0 µM): 99%
residual activity ([10]; compound 10.0 µM): 89%
residual activity ([11]; compound 1.0 µM): 89%
residual activity ([11]; compound 10.0 µM): 102%
residual activity ([12]; compound 1.0 µM): 98%
residual activity ([12]; compound 10.0 µM): 100%
residual activity ([13]; compound 1.0 µM): 83%
residual activity ([13]; compound 10.0 µM): 80%
residual activity [14]: 117%
residual activity ([15]; compound 1.0 µM): 102%
residual activity ([15]; compound 10.0 µM): 106%
residual activity ([16]; compound 1.0 µM): 86%
residual activity ([16]; compound 10.0 µM): 79%
residual activity ([17]; compound 1.0 µM): 101%
residual activity ([17]; compound 10.0 µM): 55%
residual activity ([18]; compound 1.0 µM): 106%
residual activity ([18]; compound 10.0 µM): 97%
residual activity ([19]; compound 1.0 µM): 100%
residual activity ([19]; compound 10.0 µM): 96%
residual activity ([20]; compound 1.0 µM): 72%
residual activity ([20]; compound 10.0 µM): 32%
residual activity ([21]; compound 1.0 µM): 101%
residual activity ([21]; compound 10.0 µM): 97%
residual activity ([22]; compound 1.0 µM): 116%
residual activity ([22]; compound 10.0 µM): 97%
residual activity ([23]; compound 1.0 µM): 102%
residual activity ([23]; compound 10.0 µM): 87%
residual activity ([24]; compound 1.0 µM): 95%
residual activity ([24]; compound 10.0 µM): 91%
residual activity ([25]; compound 1.0 µM): 103%
residual activity ([25]; compound 10.0 µM): 86%
residual activity ([26]; compound 1.0 µM): 106%
residual activity ([26]; compound 10.0 µM): 48%
residual activity ([27]; compound 1.0 µM): 104%
residual activity ([27]; compound 10.0 µM): 104%
residual activity ([28]; compound 1.0 µM): 99%
residual activity ([28]; compound 10.0 µM): 73%
residual activity ([29]; compound 1.0 µM): 98%
residual activity ([29]; compound 10.0 µM): 77%
residual activity ([30]; compound 1.0 µM): 92%
residual activity ([30]; compound 10.0 µM): 53%
residual activity ([31]; compound 1.0 µM): 90%
residual activity ([31]; compound 10.0 µM): 42%
residual activity ([32]; compound 1.0 µM): 115%
residual activity ([32]; compound 10.0 µM): 109%
residual activity ([33]; compound 1.0 µM): 102%
residual activity ([33]; compound 10.0 µM): 86%
residual activity ([34]; compound 1.0 µM): 96%
residual activity ([34]; compound 10.0 µM): 88%
residual activity ([35]; compound 1.0 µM): 105%
residual activity ([35]; compound 10.0 µM): 69%
SMILES: NC(=O)c1c(NC(=O)C2CC2)sc2c1CCCC2
